{
  "source": "ChEMBL document CHEMBL4028852",
  "about": "“Design of a Chemical Probe for the Bromodomain and Plant Homeodomain Finger-Containing (BRPF) Family of Proteins” (J Med Chem, 2017)",
  "key": {"Kv4.3/KChIP2": {"target": "T1, Kv4.3/KChIP2 (Homo sapiens, UniProt Q9NS61+Q9UK17)", "T1 sequence (Q9UK17 whole entry)": "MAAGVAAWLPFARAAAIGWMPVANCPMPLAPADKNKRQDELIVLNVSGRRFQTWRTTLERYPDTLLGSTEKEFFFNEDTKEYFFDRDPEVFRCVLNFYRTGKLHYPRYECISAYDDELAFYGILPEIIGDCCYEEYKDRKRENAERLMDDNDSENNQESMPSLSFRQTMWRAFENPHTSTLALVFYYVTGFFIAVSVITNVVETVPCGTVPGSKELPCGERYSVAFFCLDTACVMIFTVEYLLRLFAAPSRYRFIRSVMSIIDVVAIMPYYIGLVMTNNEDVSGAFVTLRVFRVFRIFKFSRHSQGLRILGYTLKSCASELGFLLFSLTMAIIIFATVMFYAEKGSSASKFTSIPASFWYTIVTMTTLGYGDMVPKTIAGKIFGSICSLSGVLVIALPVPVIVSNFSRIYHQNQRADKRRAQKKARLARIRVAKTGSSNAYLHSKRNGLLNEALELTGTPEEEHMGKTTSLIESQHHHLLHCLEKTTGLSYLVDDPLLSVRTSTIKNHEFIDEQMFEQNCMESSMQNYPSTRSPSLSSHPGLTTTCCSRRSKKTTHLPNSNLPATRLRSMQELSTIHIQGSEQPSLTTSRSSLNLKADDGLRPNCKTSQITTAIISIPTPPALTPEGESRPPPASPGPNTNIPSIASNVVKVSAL", "T1 sequence (Q9NS61 whole entry)": "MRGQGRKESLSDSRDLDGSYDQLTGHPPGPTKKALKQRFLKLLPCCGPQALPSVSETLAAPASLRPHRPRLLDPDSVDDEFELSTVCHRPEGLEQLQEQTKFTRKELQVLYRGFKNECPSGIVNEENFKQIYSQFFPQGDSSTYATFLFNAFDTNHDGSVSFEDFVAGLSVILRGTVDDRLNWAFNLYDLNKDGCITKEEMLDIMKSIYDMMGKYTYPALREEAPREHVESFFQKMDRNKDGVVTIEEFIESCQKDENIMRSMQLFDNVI", "experiment": "Inhibition of Kv4.3/KChIP2 (unknown origin) at 30 uM", "type": "protein-complex assay"}, "[1]": {"experiment": "Inhibition of cell proliferation of human HRA19 cells after 72 hrs by MTS assay", "type": "functional", "details": "HRA19, 72 h"}, "NCI-H1703": {"system": "NCI-H1703", "experiment": "Inhibition of cell proliferation of human NCI-H1703 cells after 72 hrs by MTS assay", "type": "functional", "details": "NCI-H1703, 72 h"}, "Liver": {"system": "Liver", "experiment": "Metabolic stability in mouse liver microsomes by UPLC-MS/MS analysis", "type": "ADME, microsome"}, "[2]": {"target": "T2, ATPase family AAA domain-containing protein 2 (Homo sapiens, UniProt Q6PL18)", "T2 sequence (Q6PL18 whole entry)": "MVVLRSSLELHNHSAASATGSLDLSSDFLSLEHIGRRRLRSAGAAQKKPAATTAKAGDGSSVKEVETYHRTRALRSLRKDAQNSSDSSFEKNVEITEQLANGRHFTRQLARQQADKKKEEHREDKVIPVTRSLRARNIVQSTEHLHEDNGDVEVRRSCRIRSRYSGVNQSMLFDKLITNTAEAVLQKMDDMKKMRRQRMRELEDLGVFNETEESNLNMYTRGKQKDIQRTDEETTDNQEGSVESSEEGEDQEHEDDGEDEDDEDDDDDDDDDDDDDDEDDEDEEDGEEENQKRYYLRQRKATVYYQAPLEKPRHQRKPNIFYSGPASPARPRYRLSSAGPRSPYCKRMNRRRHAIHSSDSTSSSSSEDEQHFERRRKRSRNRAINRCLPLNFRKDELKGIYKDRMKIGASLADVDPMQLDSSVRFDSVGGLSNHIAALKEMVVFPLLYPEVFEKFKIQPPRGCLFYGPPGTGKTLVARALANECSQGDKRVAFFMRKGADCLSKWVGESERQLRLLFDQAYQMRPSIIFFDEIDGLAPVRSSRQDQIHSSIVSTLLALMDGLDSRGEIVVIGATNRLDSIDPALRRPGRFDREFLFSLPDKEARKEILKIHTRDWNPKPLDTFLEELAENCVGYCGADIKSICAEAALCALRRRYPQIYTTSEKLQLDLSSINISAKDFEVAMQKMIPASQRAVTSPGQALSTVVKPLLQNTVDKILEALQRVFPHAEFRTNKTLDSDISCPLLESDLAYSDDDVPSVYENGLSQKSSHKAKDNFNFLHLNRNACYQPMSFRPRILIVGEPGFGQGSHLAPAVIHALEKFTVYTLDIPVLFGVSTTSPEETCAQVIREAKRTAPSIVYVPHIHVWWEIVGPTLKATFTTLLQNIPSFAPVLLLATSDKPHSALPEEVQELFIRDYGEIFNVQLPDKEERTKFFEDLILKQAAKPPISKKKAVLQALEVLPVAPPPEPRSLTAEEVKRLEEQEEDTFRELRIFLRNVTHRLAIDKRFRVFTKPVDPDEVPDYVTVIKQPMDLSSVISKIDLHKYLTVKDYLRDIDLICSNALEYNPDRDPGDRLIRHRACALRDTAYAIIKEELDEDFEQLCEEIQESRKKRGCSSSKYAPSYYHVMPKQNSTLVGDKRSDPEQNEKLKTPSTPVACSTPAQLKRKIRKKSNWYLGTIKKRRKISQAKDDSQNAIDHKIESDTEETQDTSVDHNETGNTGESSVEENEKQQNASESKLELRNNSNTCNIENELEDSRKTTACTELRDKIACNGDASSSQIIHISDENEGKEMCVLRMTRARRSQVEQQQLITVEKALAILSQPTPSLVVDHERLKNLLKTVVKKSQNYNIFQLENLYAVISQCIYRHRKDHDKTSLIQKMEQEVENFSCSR", "experiment": "Inhibition of human ATAD2A (981 to 1108 residues) expressed in Escherichia coli BL21 after 1 hr by BROMOscan assay"}},
  "data": [
    {"compound": "COc1cc(C#N)ccc1S(=O)(=O)Nc1ccc2c(c1)cc(C)c(=O)n2C", "values": [
      {"measurement": "inhibition at 30 µM", "setting": "Kv4.3/KChIP2", "value": "< 40", "unit": "%"},
      {"measurement": "GI50", "setting": "[1]", "value": 15.6, "unit": "µM"},
      {"measurement": "GI50", "setting": "NCI-H1703", "value": 10.4, "unit": "µM"},
      {"measurement": "Stability", "setting": "Liver", "value": "Stable"},
      {"measurement": "IC50", "setting": "[2]", "value": "> 100", "unit": "µM"}
    ]}
  ]
}
